Measurements taken from ChEMBL document CHEMBL1949534, “Two-step bioorthogonal activity-based proteasome profiling using copper-free click reagents: a comparative study” (Bioorg Med Chem, 2012).
Active and inactive are the calls of the source. The calls are words filed in the database; no cut-off is given here.

Assays:
Proteasome [1] = test: Binding affinity to proteasome in azido-BODIPY-epoxomicin treated HEK293T cell lysates at 1 to 100 uM after 1 hr by Western blot analysis with streptavidin-HRP; type: subcellular; conditions: Homo sapiens, HEK-293T
Proteasome [2] = test: Binding affinity to proteasome in azido-BODIPY-epoxomicin treated HEK293T cell lysates at 0.5 uM at 37 degC after 30 mins by SDS-PAGE-based fluorescence analysis; type: subcellular; conditions: Homo sapiens, HEK-293T
Proteasome [3] = test: Binding affinity to proteasome in azido-BODIPY-epoxomicin treated HEK293T cell lysates at 0.5 uM at 0 degC by SDS-PAGE-based fluorescence analysis; type: subcellular; conditions: Homo sapiens, HEK-293T
Proteasome [4] = test: Binding affinity to proteasome in azido-BODIPY-epoxomicin treated HEK293T cell lysates at 5 uM after 1 hr by SDS-PAGE-based fluorescence analysis; type: subcellular; conditions: Homo sapiens, HEK-293T
HeLa [5] = test: Binding affinity to proteasome in human HeLa cells assessed as fluorescence at 0.5 uM pretreated with azido-BODIPY-epoxomicin for 2 hrs followed by 4 hrs of incubation with compound measured post washing by SDS-PAGE-based Western blot analysis
Proteasome [6] = test: Binding affinity to proteasome in azido-BODIPY-epoxomicin treated HEK293T cell lysates at 5 uM at 37 degC after 2 hrs by SDS-PAGE-based fluorescence analysis; type: subcellular; conditions: Homo sapiens, HEK-293T
Proteasome [7] = test: Binding affinity to proteasome in azido-BODIPY-epoxomicin treated HEK293T cell lysates at 50 to 100 uM after 1 hr by SDS-PAGE-based fluorescence analysis; type: subcellular; conditions: Homo sapiens, HEK-293T
Proteasome [8] = test: Binding affinity to proteasome in azido-BODIPY-epoxomicin treated HEK293T cell lysates at 5 uM at 0 degC by SDS-PAGE-based fluorescence analysis; type: subcellular; conditions: Homo sapiens, HEK-293T
HeLa [9] = test: Binding affinity to proteasome in human HeLa cells assessed as fluorescence at 5 uM pretreated with azido-BODIPY-epoxomicin for 2 hrs followed by 4 hrs of incubation with compound measured post washing by SDS-PAGE-based Western blot analysis
Proteasome [10] = test: Binding affinity to proteasome in azido-BODIPY-epoxomicin treated HEK293T cell lysate at 50 uM at 37 degC up to 4 hrs by SDS-PAGE-based fluorescence analysis; type: subcellular; conditions: Homo sapiens, HEK-293T
Proteasome [11] = test: Binding affinity to proteasome in azido-BODIPY-epoxomicin treated HEK293T cell lysates at 50 uM at 0 degC by SDS-PAGE-based fluorescence analysis; type: subcellular; conditions: Homo sapiens, HEK-293T
HeLa [12] = test: Binding affinity to proteasome in human HeLa cells assessed as fluorescence at 100 uM pretreated with azido-BODIPY-epoxomicin for 2 hrs followed by 4 hrs of incubation with compound measured post washing by SDS-PAGE-based Western blot analysis
Proteasome [13] = test: Binding affinity to proteasome in azido-BODIPY-epoxomicin treated HEK293T cell lysates at 5 uM at 37 degC up to 4 hrs by SDS-PAGE-based fluorescence analysis; type: subcellular; conditions: Homo sapiens, HEK-293T

| Activity (Proteasome [1]) | Activity (Proteasome [7]) | Activity (Proteasome [8]) | Activity (HeLa [9]) | SMILES | further results |
| --- | --- | --- | --- | --- | --- |
| Active |  |  |  | O=C(CCCC[C@@H]1SC[C@@H]2NC(=O)N[C@@H]21)NCCOCCOCCOCCNC(=O)OC1Cc2ccccc2C#Cc2ccccc21 (stereo partly drawn) | Activity (Proteasome [2]): Active; Activity (Proteasome [3]): Active; Activity (Proteasome [4]): Active; Activity (HeLa [5]): Active |
| Active | Active | Active | Active | O=C(CCCC[C@@H]1SC[C@@H]2NC(=O)N[C@@H]21)NCCOCCOCCOCCNC(=O)OC[C@@H]1[C@@H]2CCC#CCC[C@@H]21 | Activity (Proteasome [6]): Active |
|  |  |  |  | COC(=O)c1ccc(C(=O)NCCOCCOCCNC(=O)CCCC[C@@H]2SC[C@@H]3NC(=O)N[C@@H]32)cc1P(c1ccccc1)c1ccccc1 | Activity (Proteasome [10]): Active; Activity (Proteasome [11]): Active; Activity (HeLa [12]): Active |
| Active | Active | Active | Active | O=C(CCCC[C@@H]1SC[C@@H]2NC(=O)N[C@@H]21)NCCOCCOCCNC(=O)C1(F)C#CCCCCC1 (stereo partly drawn) | Activity (Proteasome [13]): Active |
